The structures appear in SMILES notation. Bounds are passed on as bounds.

The target of the experiment is T1, human TGR5 bile acid receptor (Homo sapiens, UniProt Q8TDU6).
T1 construct: The full length TGR5 gene is inserted into pCMV6 vector DNA (Origene); expressed in transfected cells
T1 sequence (Q8TDU6 1-330): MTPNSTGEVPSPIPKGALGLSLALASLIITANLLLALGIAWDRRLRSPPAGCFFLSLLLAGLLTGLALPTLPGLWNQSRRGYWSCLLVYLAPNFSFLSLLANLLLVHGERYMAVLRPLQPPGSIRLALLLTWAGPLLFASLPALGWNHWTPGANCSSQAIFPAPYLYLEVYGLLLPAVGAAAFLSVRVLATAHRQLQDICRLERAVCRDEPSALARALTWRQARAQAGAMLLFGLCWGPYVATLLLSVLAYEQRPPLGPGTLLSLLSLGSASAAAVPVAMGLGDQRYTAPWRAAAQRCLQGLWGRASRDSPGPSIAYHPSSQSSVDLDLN
Put plainly: TGR5 receptor activation, HTRF cAMP assay in 293/humanTGR5 cells. It counts as cell-based. The following applies: activation of 293/humanTGR5 (HEK 293) cells measured by cAMP levels, 30 minutes at 37° C., relative to vehicle and 50 μM of Compound 7. How it is done: Transformed E. coli stocks containing cDNA for the full length human TGR5 bile acid receptor (IMAGE clone #5221127) are obtained from Open Biosystems. Cultures are grown in LB broth, and cDNA is purified using Qiagen mini-prep columns. The full length TGR5 gene is inserted into pCMV6 vector DNA (Origene) by ligation followed by transformation in competent E. coli. Ampicillin-resistant clones are isolated and vector DNA containing the TGR5 gene is verified by DNA sequence analysis (Sequetech). The resulting plasmid is transfected into HEK 293 cells using FuGene 6 transfection reagent and the transfected cells are grown in the presence of 1 mg/mL G418 selection antibiotic. A number of individual G418 resistant colonies are isolated by using 150 μL cloning cylinders. The resulting 293/humanTGR5 expressing cell lines are then screened for responsiveness to the natural ligand lithocholic acid. A single clone is chosen for expansion and use for screening, this clone reproducibly responds to known receptor agonists for over 30 passages. The 293/humanTGR5 cells are maintained in DMEM/F12 media supplemented with 10% fetal bovine serum (Hyclone) and 15 mM HEPES buffer (Invitrogen). Cells are passaged twice weekly and maintained at densities to assure logarithmic growth. For use in cAMP assays, cells are trypsinzied, centrifuged, and resuspended in DMEM/F12 media supplemented with 0.5% FBA and 15 mM HEPES buffer. These cells are adjusted to a density which allows distribution of 25,000 cells in 20 μL of volume to each well of a half-area 96-well plate (Greiner Bio-One). 20 μL of test compounds diluted to a 2× concentration in DMEM/F12 media with 0.5% FBS are then added to the 96-well plates, and the plates are then incubated for 30 minutes at 37° C. in a 5% CO2 atmosphere. Levels of resulting cAMP for each treatment condition are then determined by use of an HTRF cAMP assay (CisBio) following the manufactures directions. The resulting data is analyzed using IDBX XLfit software and IC50 determinations are made for each test compound by comparing cAMP levels to vehicle controls (unstimulated) and TGR5 agonist-activated cells (50 μM of Compound 7, a reported TGR5 receptor agonist, J. Med. Chem., 2009, 52 (24), pp 7962-7965). Specificity for human TGR5 agonist activity is confirmed for compounds of interest by testing them against cell lines over expressing the mouse TGR5 receptor, human GPR119 receptor, and parent cell lines followed by measurement of resulting cAMP levels. Assay responsiveness is controlled for by measuring cAMP levels induced by 50 μM Forskolin in cells, a known adenylyl […] activator.
`Cc1ccc(N(C)C(=O)c2sc3nncn3c2-c2ccccc2)cc1Cl` [Example 1, N-(3-chloro-4-methyl-phenyl)-N-methyl-5-phenyl-thiazolo[2,3-c][1,2,4]triazole-6-carboxamide] yielded an EC50 of 0.5 to 5 µM.

The compound `Cc1ccc(N(C)C(=O)c2sc3nnc(C)n3c2-c2ccccc2)cc1Cl` [Example 2, N-(3-chloro-4-methyl-phenyl)-N,3-dimethyl-5-phenyl-thiazolo[2,3-c][1,2,4]triazole-6-carboxamide] gave an EC50 of 0.5 to 5 µM.

Regarding `Cc1ccc(N(C)C(=O)c2sc3nnc(SCc4ccc5c(c4)OCO5)n3c2-c2ccccc2)cc1Cl` [Example 3, 3-(1,3-Benzodioxol-5-ylmethylsulfanyl)-N-(3-chloro-4-methyl-phenyl)-N-methyl-5-phenyl-thiazolo[2,3-c][1,2,4]triazole-6-carboxamide], the EC50 lay in the range of 0.5 to 5 µM.

Compound `c1ccc(-c2csc3nnc(CCc4ccc5c(c4)OCO5)n23)cc1` [Example 4, 3-[2-(1,3-benzodioxol-5-yl)ethyl]-5-phenyl-thiazolo[2,3-c][1,2,4]triazole] returned an EC50 of 5 to 50 µM.

`c1ccc(-c2csc3nnc(SCc4ccc5c(c4)OCO5)n23)cc1` [Example 6, 3-(1,3-Benzodioxol-5-ylmethylsulfanyl)-5-phenyl-thiazolo[2,3-c][1,2,4]triazole] gave an EC50 of 5 to 50 µM.

With `OC(c1ccc(F)cc1)c1sc2nnc(SCc3ccc4c(c3)OCO4)n2c1-c1ccccc1` (stereo not shown) [Example 7, [3-(1,3-Benzodioxol-5-ylmethylsulfanyl)-5-phenyl-thiazolo[2,3-c][1,2,4]triazol-6-yl]-(4-fluorophenyl)methanol], the EC50 was 5 to 50 µM.

For the compound `Cc1nnc2sc(SCc3c(F)cccc3Cl)c(-c3ccccc3)n12` [Example 8, 6-[(2-Chloro-6-fluoro-phenyl)methylsulfanyl]-3-methyl-5-phenyl-thiazolo[2,3-c][1,2,4]triazole], the EC50 was in the range of 5 to 50 µM.

Take `COc1ccc(C(C)(C)c2sc3nnc(SCc4c(F)cccc4Cl)n3c2-c2ccccc2)cc1OC` [Example 11, 3-[(2-chloro-6-fluoro-phenyl)methylsulfanyl]-6-[1-(3,4-dimethoxyphenyl)-1-methyl-ethyl]-5-phenyl-thiazolo[2,3-c][1,2,4]triazole]: the EC50 was 0.5 to 5 µM.

Compound `C=C(c1ccc(OC)c(OC)c1)c1sc2nnc(SCc3c(F)cccc3Cl)n2c1-c1ccccc1` [Example 12, 3-[(2-chloro-6-fluoro-phenyl)methylsulfanyl]-6-[1-(3,4-dimethoxyphenyl)vinyl]-5-phenyl-thiazolo[2,3-c][1,2,4]triazole] yielded an EC50 of 5 to 50 µM.

Take `Cc1ccc(Nc2nnc3scc(-c4cc(Cl)ccc4Cl)n23)cc1Cl` [Example 14, N-(3-chloro-4-methylphenyl)-5-(2,5-dichlorophenyl)thiazolo[2,3-c][1,2,4]triazol-3-amine]: the EC50 fell in the range of 0.5 to 5 µM.

In the case of `Fc1cccc(Cl)c1CSc1ncc2scc(-c3cccc(Cl)c3)n12` [Example 15, 5-[(2-chloro-6-fluoro-phenyl)methylsulfanyl]-3-(3-chlorophenyl)imidazo[5,1-b]thiazole], the EC50 is less than 0.5 µM.

On to `COc1ccc(Cc2sc3nnc(SCc4c(F)cccc4Cl)n3c2-c2cccc(Cl)c2)cc1OC` [Example 17, 3-[(2-Chloro-6-fluoro-phenyl)methylsulfanyl]-5-(3-chlorophenyl)-6-[(3,4-dimethoxyphenyl)methyl]thiazolo[2,3-c][1,2,4]triazole], for which the half-maximal effective concentration (EC50) was 0.5 to 5 µM.

In the case of `COc1ccc(Cc2sc3cnc(SCc4c(F)cccc4Cl)n3c2-c2cccc(Cl)c2)cc1OC` [Example 18, 5-[(2-chloro-6-fluoro-phenyl)methylsulfanyl]-3-(3-chlorophenyl)-2-[(3,4-dimethoxyphenyl)methyl]imidazo[5,1-b]thiazole], the concentration for a half-maximal effect (EC50) is less than 0.5 µM.

`Fc1cccc(Cl)c1CSc1nnc2scc(-c3ccccc3)n12` [Example 19] registered an EC50 of 5 to 50 µM.

`Fc1ccc(-c2csc3nnc(SCc4ccc5c(c4)OCO5)n23)cc1` [Example 24]: the EC50 was in the range of 5 to 50 µM.

In the case of `Clc1ccc(CSc2nnc3scc(-c4ccccc4)n23)cc1` [Example 26], the EC50 lay within 0.5 to 5 µM.

`c1ccc(CCSc2nnc3scc(-c4ccccc4)n23)cc1` [Example 30] displayed an EC50 of 5 to 50 µM.

As for `c1ccc(-c2csc3nnc(SCc4ccc5cnccc5c4)n23)cc1` [Example 43], the EC50 was in the range of 5 to 50 µM.

Take `c1ccc(-c2csc3nnc(Oc4ccc5c(c4)OCO5)n23)cc1` [Example 46]: the EC50 lay within 5 to 50 µM.

For `CCc1sc2nnc(SCc3ccc4c(c3)OCO4)n2c1-c1ccccc1` [Example 48], the EC50 was in the range of 5 to 50 µM.

For `COc1cc(-c2csc3nnc(SCc4ccc5c(c4)OCO5)n23)ccc1F` [Example 50], the concentration giving a half-maximal response (EC50) lay in the range of 0.5 to 5 µM.

In the case of `Fc1ccc(-c2csc3nnc(SCc4ccc5c(c4)OCO5)n23)cc1Br` [Example 53], the EC50 is less than 0.5 µM.

On to `CN(C(=O)C(C)(C)C)c1cc(F)ccc1-c1csc2nnc(SCc3ccc4c(c3)OCO4)n12` [Example 59], for which the EC50 lay within 5 to 50 µM.

For the compound `COc1ccc(-c2csc3nnc(SCc4ccc5c(c4)OCO5)n23)c(Cl)c1` [Example 65], the half-maximal effective concentration (EC50) lay in the range of 0.5 to 5 µM.

The compound `COC(=O)c1cccc(CSc2nnc3scc(-c4cccc(Br)c4)n23)c1` [Example 66] registered an EC50 of 0.5 to 5 µM.

On to `Brc1cccc(-c2csc3nnc(SCc4ccc5c(c4)OCO5)n23)c1` [Example 69], for which the EC50 is less than 0.5 µM.

With `Clc1cccc(-c2csc3nnc(SCc4ccc5c(c4)OCO5)n23)c1Cl` [Example 76], the EC50 lay within 0.5 to 5 µM.

Regarding `c1cc(-c2csc3nnc(SCc4ccc5c(c4)OCO5)n23)cc(C2CC2)c1` [Example 80], the EC50 lay in the range of 0.5 to 5 µM.

`COc1ccc(Cc2sc3nnc(SCc4c(F)cccc4Cl)n3c2-c2ccc(F)cc2)cc1OC` [Example 83] returned an EC50 of 0.5 to 5 µM.

As for `Cc1ccc(-c2csc3nnc(SCc4c(F)cccc4Cl)n23)cc1Cl` [Example 86], the EC50 fell in the range of 0.5 to 5 µM.

Turning to `COc1ccc(CSc2nnc3sc(-c4c(F)cccc4Cl)c(-c4ccc(F)cc4)n23)cc1F` [Example 94], the EC50 was in the range of 0.5 to 5 µM.

`Fc1ccc(-c2c(-c3c(F)cccc3Cl)sc3nnc(Cc4ccc5c(c4)OCO5)n23)cc1` [Example 97] had an EC50 of 5 to 50 µM.

In turn, `CC(c1ccccc1)c1sc2nnc(SCc3c(F)cccc3Cl)n2c1-c1ccc(F)cc1` (stereo not shown) [Example 98] registered an EC50 of 5 to 50 µM.

For the compound `COc1ccc(Cc2sc3nnc(SCc4c(F)cccc4Cl)n3c2-c2ccc(F)c(Cl)c2)cc1Cl` [Example 100], the EC50 was 0.5 to 5 µM.

As for `COc1ccc(Cc2sc3nnc(SCc4ccc(F)cc4F)n3c2-c2ccc(F)c(Cl)c2)cc1Cl` [Example 106], the 50% effective concentration (EC50) was 0.5 to 5 µM.

For `Cc1ccc(-c2csc3nnc(SCc4c(F)cccc4Cl)n23)cc1` [Example 109], the EC50 was less than 0.5 µM.

`COc1cc(Br)c(Cc2sc3nnc(SCc4c(F)cccc4Cl)n3c2-c2ccc(F)c(Cl)c2)c(Br)c1OC` [Example 112]: the EC50 is 0.5 to 5 µM.

The compound `Cc1cc(-c2csc3nnc(SCc4ccc5c(c4)OCO5)n23)ccc1F` [Example 115] returned an EC50 of less than 0.5 µM.

`Fc1cccc(Cl)c1CSc1nnc2scc(-c3cccc(Cl)c3)n12` [Example 117] returned an EC50 of 0.5 to 5 µM.

With `COc1cc(Br)c(Cc2sc3nnc(SCc4c(F)cccc4Cl)n3c2-c2ccc(F)c(Cl)c2)cc1OC` [Example 119], the EC50 lay in the range of 0.5 to 5 µM.

In the case of `Cc1ccc(N(C)c2nnc3scc(-c4cc(Cl)ccc4Cl)n23)cc1Cl` [Example 120], the EC50 is 0.5 to 5 µM.

`COc1cc(Cl)c(Cc2sc3nnc(SCc4ccc5c(c4)OCO5)n3c2-c2cccc(Cl)c2)cc1OC` [Example 127] had an EC50 of 0.5 to 5 µM.

In turn, `c1ccc2cc(-c3csc4nnc(SCc5ccc6c(c5)OCO6)n34)ccc2c1` [Example 131] registered an EC50 of 5 to 50 µM.

Values taken from US20130085157A1, “ARYLSUBSTITUTED THIAZOLOTRIAZOLES AND THIAZOLOIMIDAZOLES” (priority 2011, published 2013).
